# Assay results reported in patent US11873291B2, “Quinoline cGAS antagonist compounds” (ImmuneSensor Therapeutics, Inc., priority 2020, dated 2024).
# Where two headings read alike, the source gives them in different places.
# What was measured:
# [1] = tested on: cGAS activity in Reporter THP1 cell line; experiment: Cellular assay to measure cGAS activity: ISRE-Gaussia luciferase reporter THP1 cells transfected with ISD; format: cell-based; conditions: Homo sapiens
# Experimental: Cellular assay to measure cGAS activity: Reporter THP1 cell line harboring a gene encoding Gaussia Luciferase under the control of 5 tandem repeats of interferon-stimulated response elements (ISRE) fused to an ISG54 minimal promoter was used to test inhibition of cGAS activity by synthetic compounds in human cells. These cells were plated on 96-well plates at 0.3×10^6/well and incubated with serial dilutions of compounds or DMSO for 5 min, followed by transfection of 2 μg/mL of ISD (Interferon Stimulatory DNA, a 45 bp DNA oligo) or mock transfected using lipofectamine 2000 (Life Technology) method, according to manufacturer's instructions. 16 hours later, 15 μL of the media from each well was transferred to a new plate, 50 μL of solution containing 50 mM Hepes-NaOH, pH 6.5, 50 mM NaCl, 10 mM EDTA, 1 μM of coelenterazine was added to each well and luminescence was measured immediately. Fold increase in luminescence compared to mock transfection was plotted against concentrations of each compound, and IC50 is calculated using Graphpad. To evaluate the specificity of a compound, the same procedure was performed except that cells were transfected with 2 μg/mL poly(I:C) or infected with Sendai Virus (SeV) at 50 Unit/mL, which are known to activate the RIG-I-MAVS pathway. A specific inhibitory compound should inhibit interferon induction by DNA but have minimal effect on poly(I:C) or Sendai virus induced interferon reporter gene expression.
# The letter codes for cGAS IC50 include: A (<2 μM); B (2-10 μM); C (>10 μM).
# [2] = biological target: T1, recombinant human cGAS (aa147-522) (Homo sapiens, UniProt Q8N884); experiment: In vitro inhibition assay of cGAS activity (ATP consumption, KinaseGlo Max); format: biochemical
# T1 construct: recombinant human cGAS (aa147-522); His6-SUMO (cleaved yes); made in house; host or cells: E. coli BL21/pLys
# Method in brief: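 De-tagged recombinant human cGAS (aa147-522, 1.5 μg/mL) was incubated 20 min at 37 °C with herring testis DNA, 6.6 μM ATP and 0.1 mM GTP in Tris pH 7.5/MgCl2 buffer plus serial compound dilutions. Remaining ATP was read by KinaseGlo Max luminescence, and IC50 was fitted from % ATP consumption versus log concentration.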
# [3] = THP-1, Table 4, Gaussia luciferase
# [4] = Table 3, read-out: cGAS Inhibition Results IC50
# [5] = THP-1, untitled table after Table 4 (continuation)
# [6] = Table 2, read-out: cGAS Inhibition Results IC50
# T1 sequence (Q8N884 147-522): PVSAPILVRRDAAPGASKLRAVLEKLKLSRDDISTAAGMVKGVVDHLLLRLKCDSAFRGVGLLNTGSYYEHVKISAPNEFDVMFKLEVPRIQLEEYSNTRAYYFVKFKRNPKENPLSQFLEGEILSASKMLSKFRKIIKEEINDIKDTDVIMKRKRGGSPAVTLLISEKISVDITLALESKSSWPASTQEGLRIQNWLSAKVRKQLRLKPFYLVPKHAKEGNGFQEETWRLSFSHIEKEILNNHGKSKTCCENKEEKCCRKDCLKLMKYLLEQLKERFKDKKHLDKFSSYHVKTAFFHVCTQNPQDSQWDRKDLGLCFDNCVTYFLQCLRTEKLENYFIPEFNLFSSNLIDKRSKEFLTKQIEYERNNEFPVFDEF
Structure (SMILES),"IC50 [1, 3] [nM]","IC50 [2, 4] [nM]","IC50 [1, 5] [nM]","IC50 [2, 6] [nM]"
COC(=O)[C@@H]1[C@@H](O)CCN1c1cc(-c2cn[nH]c2)c2ccc(Cl)c(Cl)c2n1 [I-598],< 2000,2000 to 30000,,
"O=C(O)CCOCCOc1cc(-n2ccnc2)c2ccc(Cl)c(Cl)c2n1 [I-828, 3-(2-((7,8-dichloro-4-(1H-imidazol-1-yl)quinolin-2-yl)oxy)ethoxy)propanoic acid]",,2000 to 30000,> 10000,
O=C(O)COC[C@@H]1CN(c2cc(-c3cn[nH]c3)c3ccc(Cl)c(Cl)c3n2)CCO1 [I-740],> 10000,< 2000,,
CN(CCCOCCC(=O)O)c1cc(-n2ccnc2)c2ccc(Cl)c(Cl)c2n1 [I-692],< 2000,< 2000,,
CO[C@@H]1C[C@@H](COCCC(=O)O)N(c2cc(-n3ccnc3)c3ccc(Cl)c(Cl)c3n2)C1 [I-711],< 2000,< 2000,,
COC(=O)[C@@H]1[C@@H]2[C@H](CN1c1cc(-n3ccnc3)c3ccc(Cl)c(Cl)c3n1)C2(C)C [I-471],2000 to 10000,2000 to 30000,,
COC(=O)[C@@H]1[C@@H](O)CCN1c1cc(-n2ccnc2)c2ccc(Cl)c(Br)c2n1 [I-872],,2000 to 30000,< 2000,
O=C(O)CCOCCN(CCOCCC(=O)O)c1cc(-n2ccnc2)c2ccc(Cl)c(Cl)c2n1 [I-839],,< 2000,> 10000,
CN(CCOc1cccc(CC(=O)O)c1)c1cc(-n2ccnc2)c2ccc(Cl)c(Cl)c2n1 [I-843],,< 2000,2000 to 10000,
O=C(O)CCc1cccc(Nc2cc(-n3ccnc3)c3ccc(Cl)c(Cl)c3n2)c1 [I-883],,< 2000,2000 to 10000,
O=C(O)CCCCCNc1cc(-n2ccnc2)c2ccc(Cl)c(Cl)c2n1 [I-690],< 2000,< 2000,,
"O=C(O)c1cccc(OC[C@@H]2CCCN2c2cc(-n3ccnc3)c3ccc(Cl)c(Cl)c3n2)c1 [I-735, (S)-3-((1-(7,8-dichloro-4-(1H-imidazol-1-yl)quinolin-2-yl)pyrrolidin-2-yl)methoxy)benzoic acid]",2000 to 10000,< 2000,,
CC(C)N(CCOCCC(=O)O)c1cc(-n2ccnc2)c2ccc(Cl)c(Cl)c2n1 [I-833],,< 2000,< 2000,
O=C(O)c1cnn(CCNc2cc(-n3ccnc3)c3ccc(Cl)c(Cl)c3n2)c1 [I-889],,< 2000,> 10000,
O=C(O)c1cccc(CNc2cc(-n3ccnc3)c3ccc(Cl)c(Cl)c3n2)c1 [I-887],,< 2000,2000 to 10000,
O=C(O)CCOC[C@@H]1CCCN1c1cc(-n2ccnc2)c2cc(Cl)c(Cl)c(Cl)c2n1 [I-876],,< 2000,< 2000,
O=C(O)CCOC[C@@H]1CN(c2cc(-c3cn[nH]c3)c3ccc(Cl)c(Cl)c3n2)CCO1 [I-741],2000 to 10000,< 2000,,
O=C(O)CCOC[C@@H]1C[C@@H](c2ccccc2)CN1c1cc(-n2ccnc2)c2ccc(Cl)c(Cl)c2n1 [I-802],,< 2000,< 2000,
O=C(O)CCOCC1CC(O)CN(c2cc(-n3ccnc3)c3ccc(Cl)c(Cl)c3n2)C1 (centres unmarked) [I-748],> 10000,< 2000,,
COC(=O)CCOC[C@@H]1CCCN1c1cc(-c2cn[nH]c2)c2ccc(Cl)c(Cl)c2n1 [I-671],< 2000,< 2000,,
OCCCOCC[C@@H]1CCCN1c1cc(-n2ccnc2)c2ccc(Cl)c(Cl)c2n1 [I-678],2000 to 10000,< 2000,,
CC(OCCC(=O)O)c1cccc(-c2cc(-n3ccnc3)c3ccc(Cl)c(Cl)c3n2)c1 (centres unmarked) [I-880],,< 2000,2000 to 10000,
Cc1ccc(-c2cc(-n3ccnc3)c3ccc(Cl)c(Cl)c3n2)cc1COCCC(=O)O [I-877],,< 2000,< 2000,
"COC(=O)CCNC(=O)[C@@H]1[C@@H](O)CCN1c1cc(-n2ccnc2)c2ccc(Cl)c(Cl)c2n1 [I-791, methyl 3-((2S,3S)-1-(7,8-dichloro-4-(1H-imidazol-1-yl)quinolin-2-yl)-3-hydroxypyrrolidine-2-carboxamido)propanoate]",,2000 to 30000,> 10000,

# Second part, the molecule after the results:
"IC50 [1, 3] [nM]","IC50 [2, 4] [nM]","IC50 [1, 5] [nM]","IC50 [2, 6] [nM]",Structure (SMILES)
< 2000,< 2000,,,O=C(O)CCOC[C@@H]1CCCN(c2cc(-n3ccnc3)c3ccc(Cl)c(Cl)c3n2)C1 [I-750]
< 2000,< 2000,,,O=C(O)CCCCOC[C@@H]1CCCN1c1cc(-n2ccnc2)c2ccc(Cl)c(Cl)c2n1 [I-676]
,2000 to 30000,> 10000,,CCOC(=O)[C@@H]1[C@@H](O)[C@H](C)CN1c1cc(-n2ccnc2)c2ccc(Cl)c(Cl)c2n1 [I-779]
< 2000,2000 to 30000,,,CCCCOC(=O)[C@@H]1[C@@H](O)CCN1c1cc(-n2ccnc2)c2ccc(Cl)c(Cl)c2n1 [I-601]
< 2000,< 2000,,,O=C(O)CCOC[C@@H]1C[C@H](F)CN1c1cc(-n2ccnc2)c2ccc(Cl)c(Cl)c2n1 [I-705]
> 10000,,,< 2000,NS(=O)(=O)CC1CCN(c2cc(-n3ccnc3)c3ccc(Cl)c(Cl)c3n2)C1 (centres unmarked) [I-149]
< 2000,< 2000,,,O=C(O)CCOCC[C@@H]1CCCN1c1cc(-n2ccnc2)c2ccc(Cl)c(Cl)c2n1 [I-672]
< 2000,< 2000,,,"O=C(O)CCOC[C@@H]1CCCN1c1cc(-n2ccnc2)c2ccc(Cl)c(Cl)c2n1 [I-664, (S)-3-((1-(7,8-dichloro-4-(1H-imidazol-1-yl)quinolin-2-yl)pyrrolidin-2-yl)methoxy)propanoic acid]"
2000 to 10000,,,< 2000,NS(=O)(=O)C1CCCN(c2cc(-n3ccnc3)c3ccc(Cl)c(Cl)c3n2)C1 (centres unmarked) [I-116]
2000 to 10000,< 2000,,,O=C(O)[C@@H]1CC2(CC2)CN1c1cc(-n2ccnc2)c2ccc(Cl)c(Cl)c2n1 [I-478]
< 2000,< 2000,,,COC(=O)[C@@H]1CC2(CC2)CN1c1cc(-n2ccnc2)c2ccc(Cl)c(Cl)c2n1 [I-582]
> 10000,< 2000,,,O=C(O)C[C@@H]1CCN1c1cc(-n2ccnc2)c2ccc(Cl)c(Cl)c2n1 [I-461]
< 2000,< 2000,,,CC(CC(=O)O)OC[C@@H]1CCCN1c1cc(-n2ccnc2)c2ccc(Cl)c(Cl)c2n1 (some centres unmarked) [I-717]
2000 to 10000,2000 to 30000,,,COC(=O)C1C(C)CCN1c1cc(-n2ccnc2)c2ccc(Cl)c(Cl)c2n1 (centres unmarked) [I-578]
2000 to 10000,< 2000,,,COC(=O)C(F)COC[C@@H]1CCCN1c1cc(-n2ccnc2)c2ccc(Cl)c(Cl)c2n1 (some centres unmarked) [I-700]
< 2000,< 2000,,,O=C(O)/C=C/C[C@@H]1CCCN1c1cc(-n2ccnc2)c2ccc(Cl)c(Cl)c2n1 [I-685]
2000 to 10000,< 2000,,,O=C(O)CC[C@@H]1CCCN1c1cc(-n2ccnc2)c2ccc(Cl)c(Cl)c2n1 [I-679]
2000 to 10000,< 2000,,,"O=C(O)CCOC[C@H](O)[C@@H]1CCCN1c1cc(-n2ccnc2)c2ccc(Cl)c(Cl)c2n1 [I-724, 3-((R)-2-((S)-1-(7,8-dichloro-4-(1H-imidazol-1-yl)quinolin-2-yl)pyrrolidin-2-yl)-2-hydroxyethoxy)propanoic acid]"
,2000 to 30000,> 10000,,"O=C(O)CCNC[C@@H]1CCCN1c1cc(-n2ccnc2)c2ccc(Cl)c(Cl)c2n1 [I-756, (5)-3-(((1-(7,8-dichloro-4-(1H-imidazol-1-yl)quinolin-2-yl)pyrrolidin-2-yl)methyl)amino)propanoic acid]"
< 2000,2000 to 30000,,,COC(=O)C(C)COC[C@@H]1CCCN1c1cc(-n2ccnc2)c2ccc(Cl)c(Cl)c2n1 (some centres unmarked) [I-720]
< 2000,< 2000,,,O=C(O)COCC[C@@H]1CCCN1c1cc(-n2ccnc2)c2ccc(Cl)c(Cl)c2n1 [I-668]
,< 2000,< 2000,,C[C@@H]1C[C@@H](COCCC(=O)O)N(c2cc(-n3ccnc3)c3ccc(Cl)c(Cl)c3n2)C1 [I-795]
,< 2000,< 2000,,O=C(O)COCCC[C@@H]1CCCN1c1cc(-n2ccnc2)c2ccc(Cl)c(Cl)c2n1 [I-820]
,< 2000,< 2000,,CC1(C)C[C@@H](COCCC(=O)O)N(c2cc(-n3ccnc3)c3ccc(Cl)c(Cl)c3n2)C1 [I-794]
,< 2000,> 10000,,O=C(O)C[C@H]1CCCN1c1cc(-n2ccnc2)c2ccc(Cl)c(Cl)c2n1 [I-776]
> 10000,,,< 2000,O=C(O)C1COCCN1c1cc(-n2ccnc2)c2ccc(Cl)c(Cl)c2n1 (centres unmarked) [I-92]
2000 to 10000,< 2000,,,C[C@H]1C[C@@H](C(=O)O)N(c2cc(-n3ccnc3)c3ccc(Cl)c(Cl)c3n2)C1 [I-477]
,< 2000,> 10000,,"CC(=O)N[C@H]1CCN(c2cc(-n3ccnc3)c3ccc(Cl)c(Cl)c3n2)C1 [I-764, (S)—N-(1-(7,8-dichloro-4-(1H-imidazol-1-yl)quinolin-2-yl)pyrrolidin-3-yl)acetamide]"
